Molecules are shown by their SMILES. Activity calls are given as the source filed them. For most assays here, no stated cut-off is given here; in the data, actives have a measured Kd and inactives only a lower limit.

The target in test [1] is T1, Phosphorylase b kinase gamma catalytic chain, liver/testis isoform (Homo sapiens, UniProt P15735).
T1 sequence (P15735 whole entry): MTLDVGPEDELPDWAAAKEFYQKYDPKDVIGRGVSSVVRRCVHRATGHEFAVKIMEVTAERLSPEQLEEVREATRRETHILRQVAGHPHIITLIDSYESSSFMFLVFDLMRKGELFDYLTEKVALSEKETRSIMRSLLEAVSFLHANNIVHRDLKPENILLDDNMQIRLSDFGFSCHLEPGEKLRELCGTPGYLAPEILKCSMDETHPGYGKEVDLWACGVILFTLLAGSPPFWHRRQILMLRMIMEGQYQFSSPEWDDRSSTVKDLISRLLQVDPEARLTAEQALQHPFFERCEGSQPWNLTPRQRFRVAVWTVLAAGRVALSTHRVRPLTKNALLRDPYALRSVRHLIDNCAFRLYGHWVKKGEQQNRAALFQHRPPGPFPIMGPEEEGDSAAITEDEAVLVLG

For test [2], the target named is Serine/threonine-protein kinase/endoribonuclease IRE1 (Homo sapiens, UniProt O75460).
Chain of Serine/threonine-protein kinase/endoribonuclease IRE1 (O75460 whole entry): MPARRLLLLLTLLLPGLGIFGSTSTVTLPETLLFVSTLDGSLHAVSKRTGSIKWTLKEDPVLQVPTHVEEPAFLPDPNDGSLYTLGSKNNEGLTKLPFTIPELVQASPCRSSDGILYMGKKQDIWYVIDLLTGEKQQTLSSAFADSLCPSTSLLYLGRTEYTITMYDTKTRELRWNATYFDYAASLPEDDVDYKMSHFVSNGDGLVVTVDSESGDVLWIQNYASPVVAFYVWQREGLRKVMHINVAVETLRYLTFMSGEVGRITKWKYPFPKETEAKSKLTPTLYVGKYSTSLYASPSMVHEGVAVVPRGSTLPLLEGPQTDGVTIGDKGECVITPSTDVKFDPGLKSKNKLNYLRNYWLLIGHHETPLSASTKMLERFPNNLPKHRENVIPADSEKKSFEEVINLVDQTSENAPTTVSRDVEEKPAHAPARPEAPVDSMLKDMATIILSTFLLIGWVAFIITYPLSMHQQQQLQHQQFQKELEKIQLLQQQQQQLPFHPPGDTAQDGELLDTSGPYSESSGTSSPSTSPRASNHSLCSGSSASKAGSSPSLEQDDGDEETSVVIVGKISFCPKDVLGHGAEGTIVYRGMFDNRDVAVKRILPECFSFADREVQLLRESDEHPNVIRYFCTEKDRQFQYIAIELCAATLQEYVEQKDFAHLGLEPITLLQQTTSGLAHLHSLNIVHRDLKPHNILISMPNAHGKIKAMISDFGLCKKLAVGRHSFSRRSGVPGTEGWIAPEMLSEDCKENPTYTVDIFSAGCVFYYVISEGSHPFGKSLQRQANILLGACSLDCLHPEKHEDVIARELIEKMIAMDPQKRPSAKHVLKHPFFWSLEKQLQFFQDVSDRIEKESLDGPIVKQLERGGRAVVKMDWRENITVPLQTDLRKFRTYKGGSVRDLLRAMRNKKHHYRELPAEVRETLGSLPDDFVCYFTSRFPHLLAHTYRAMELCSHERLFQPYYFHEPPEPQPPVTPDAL
Test [3] addresses Interleukin-1 receptor-associated kinase 1 (Homo sapiens, UniProt P51617).
For test [4], the target named is Putative heat shock protein HSP 90-beta 2 (Homo sapiens, UniProt Q58FF8).
Chain of Putative heat shock protein HSP 90-beta 2 (Q58FF8 whole entry): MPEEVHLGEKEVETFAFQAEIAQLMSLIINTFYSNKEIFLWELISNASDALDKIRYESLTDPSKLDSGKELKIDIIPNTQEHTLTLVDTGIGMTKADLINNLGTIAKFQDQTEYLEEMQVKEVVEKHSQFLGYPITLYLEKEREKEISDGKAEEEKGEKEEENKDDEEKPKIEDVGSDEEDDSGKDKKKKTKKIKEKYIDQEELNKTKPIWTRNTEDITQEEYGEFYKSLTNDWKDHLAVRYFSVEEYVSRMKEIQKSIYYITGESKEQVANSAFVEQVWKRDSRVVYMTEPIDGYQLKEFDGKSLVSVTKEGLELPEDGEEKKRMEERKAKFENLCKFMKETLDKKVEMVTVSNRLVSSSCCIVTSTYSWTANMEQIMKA
In test [5] the target is T2, Serine/threonine-protein kinase Chk1 (Homo sapiens, UniProt O14757).
T2 sequence (O14757 whole entry): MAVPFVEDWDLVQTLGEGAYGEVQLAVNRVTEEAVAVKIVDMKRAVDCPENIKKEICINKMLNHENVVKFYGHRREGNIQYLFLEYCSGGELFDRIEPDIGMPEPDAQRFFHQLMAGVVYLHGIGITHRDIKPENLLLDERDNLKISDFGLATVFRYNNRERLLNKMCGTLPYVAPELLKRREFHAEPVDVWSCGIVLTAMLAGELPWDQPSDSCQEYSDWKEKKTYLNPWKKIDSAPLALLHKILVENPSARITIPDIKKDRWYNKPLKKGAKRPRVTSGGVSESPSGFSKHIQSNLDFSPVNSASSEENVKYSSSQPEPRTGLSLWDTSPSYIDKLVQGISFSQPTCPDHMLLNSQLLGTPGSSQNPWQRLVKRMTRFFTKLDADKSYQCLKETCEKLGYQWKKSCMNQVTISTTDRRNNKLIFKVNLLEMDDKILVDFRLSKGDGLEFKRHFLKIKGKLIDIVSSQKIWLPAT

Test [6] has as its target Ribosomal protein S6 kinase alpha-1 (Homo sapiens, UniProt Q15418).
The target of test [7] is T3, Breakpoint cluster region protein (Homo sapiens, UniProt P11274).
T3 sequence (P11274 whole entry): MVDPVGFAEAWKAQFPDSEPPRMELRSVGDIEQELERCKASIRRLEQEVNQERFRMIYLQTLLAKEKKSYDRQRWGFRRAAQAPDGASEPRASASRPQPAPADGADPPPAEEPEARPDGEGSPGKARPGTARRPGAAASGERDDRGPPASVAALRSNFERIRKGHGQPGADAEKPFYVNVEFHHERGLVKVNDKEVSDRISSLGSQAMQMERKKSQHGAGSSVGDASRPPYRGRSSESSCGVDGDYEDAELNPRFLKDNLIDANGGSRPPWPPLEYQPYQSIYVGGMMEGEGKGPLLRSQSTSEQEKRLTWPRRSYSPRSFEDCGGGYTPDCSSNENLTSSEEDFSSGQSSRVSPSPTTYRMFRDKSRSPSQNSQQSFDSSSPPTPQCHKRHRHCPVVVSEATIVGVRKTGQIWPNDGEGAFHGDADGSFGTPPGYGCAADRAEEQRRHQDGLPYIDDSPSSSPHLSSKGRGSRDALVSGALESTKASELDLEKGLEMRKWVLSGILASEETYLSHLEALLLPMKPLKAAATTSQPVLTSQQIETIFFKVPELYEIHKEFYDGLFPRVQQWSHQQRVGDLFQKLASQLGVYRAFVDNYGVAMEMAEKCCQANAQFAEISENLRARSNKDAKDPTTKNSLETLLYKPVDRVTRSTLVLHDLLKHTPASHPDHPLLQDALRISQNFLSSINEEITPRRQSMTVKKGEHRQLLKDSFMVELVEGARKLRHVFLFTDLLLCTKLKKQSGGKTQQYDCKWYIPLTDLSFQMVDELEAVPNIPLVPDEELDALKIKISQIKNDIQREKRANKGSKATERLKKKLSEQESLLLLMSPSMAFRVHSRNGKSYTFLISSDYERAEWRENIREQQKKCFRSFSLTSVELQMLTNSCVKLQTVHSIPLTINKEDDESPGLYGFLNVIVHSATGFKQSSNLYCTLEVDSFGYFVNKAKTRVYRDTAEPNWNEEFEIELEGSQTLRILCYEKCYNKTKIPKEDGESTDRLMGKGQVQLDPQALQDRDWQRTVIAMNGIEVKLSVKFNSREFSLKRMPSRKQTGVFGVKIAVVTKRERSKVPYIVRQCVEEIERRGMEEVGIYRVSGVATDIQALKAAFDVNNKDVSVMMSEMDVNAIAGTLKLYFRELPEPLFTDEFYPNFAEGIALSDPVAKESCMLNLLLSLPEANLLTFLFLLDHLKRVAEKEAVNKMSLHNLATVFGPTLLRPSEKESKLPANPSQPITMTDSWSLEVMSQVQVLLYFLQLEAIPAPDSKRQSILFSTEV

For test [8], the target named is T4, ADP/ATP translocase 2 (Homo sapiens, UniProt P05141).
T4 sequence (P05141 whole entry): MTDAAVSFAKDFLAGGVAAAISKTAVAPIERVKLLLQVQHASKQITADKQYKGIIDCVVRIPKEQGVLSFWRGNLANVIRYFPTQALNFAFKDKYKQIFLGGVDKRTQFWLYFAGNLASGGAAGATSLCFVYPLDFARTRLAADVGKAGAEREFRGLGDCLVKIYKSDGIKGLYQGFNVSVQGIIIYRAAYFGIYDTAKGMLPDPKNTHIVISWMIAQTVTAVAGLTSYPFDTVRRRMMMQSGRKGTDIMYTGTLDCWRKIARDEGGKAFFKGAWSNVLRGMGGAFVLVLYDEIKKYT

In test [9] the target is Non-receptor tyrosine-protein kinase TYK2 (Homo sapiens, UniProt P29597).
Chain of Non-receptor tyrosine-protein kinase TYK2 (P29597 whole entry): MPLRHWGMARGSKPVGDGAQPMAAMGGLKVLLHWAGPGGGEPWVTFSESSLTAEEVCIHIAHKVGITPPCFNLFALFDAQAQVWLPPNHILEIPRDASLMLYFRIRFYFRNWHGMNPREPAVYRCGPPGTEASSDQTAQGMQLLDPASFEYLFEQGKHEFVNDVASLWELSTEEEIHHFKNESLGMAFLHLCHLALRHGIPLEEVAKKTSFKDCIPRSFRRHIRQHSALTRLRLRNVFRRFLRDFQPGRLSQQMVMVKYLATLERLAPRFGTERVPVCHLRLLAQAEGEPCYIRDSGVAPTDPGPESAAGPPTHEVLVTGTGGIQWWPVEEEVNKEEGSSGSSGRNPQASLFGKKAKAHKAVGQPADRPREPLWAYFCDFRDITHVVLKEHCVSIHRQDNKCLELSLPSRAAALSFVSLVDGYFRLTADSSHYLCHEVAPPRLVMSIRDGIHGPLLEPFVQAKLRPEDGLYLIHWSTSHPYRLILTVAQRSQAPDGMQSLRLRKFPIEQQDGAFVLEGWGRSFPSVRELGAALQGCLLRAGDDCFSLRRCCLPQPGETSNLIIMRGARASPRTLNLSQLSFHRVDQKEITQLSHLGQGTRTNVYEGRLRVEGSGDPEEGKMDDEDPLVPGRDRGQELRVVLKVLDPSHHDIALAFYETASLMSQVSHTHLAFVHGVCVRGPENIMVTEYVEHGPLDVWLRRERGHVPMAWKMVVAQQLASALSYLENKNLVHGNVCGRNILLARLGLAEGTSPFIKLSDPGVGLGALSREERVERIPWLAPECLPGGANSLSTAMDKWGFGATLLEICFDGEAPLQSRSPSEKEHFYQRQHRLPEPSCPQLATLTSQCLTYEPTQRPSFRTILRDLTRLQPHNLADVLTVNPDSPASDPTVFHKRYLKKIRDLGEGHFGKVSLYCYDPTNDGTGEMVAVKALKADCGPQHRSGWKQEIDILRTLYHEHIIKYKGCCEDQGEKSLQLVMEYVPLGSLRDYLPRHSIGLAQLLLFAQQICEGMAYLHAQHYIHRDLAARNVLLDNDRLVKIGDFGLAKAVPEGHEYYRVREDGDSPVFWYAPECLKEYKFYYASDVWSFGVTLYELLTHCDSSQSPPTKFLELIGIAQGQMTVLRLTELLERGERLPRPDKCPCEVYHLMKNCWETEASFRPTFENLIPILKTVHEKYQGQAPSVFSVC
For test [10], the target named is Mitogen-activated protein kinase 3 (Homo sapiens, UniProt P27361).
Chain of Mitogen-activated protein kinase 3 (P27361 whole entry): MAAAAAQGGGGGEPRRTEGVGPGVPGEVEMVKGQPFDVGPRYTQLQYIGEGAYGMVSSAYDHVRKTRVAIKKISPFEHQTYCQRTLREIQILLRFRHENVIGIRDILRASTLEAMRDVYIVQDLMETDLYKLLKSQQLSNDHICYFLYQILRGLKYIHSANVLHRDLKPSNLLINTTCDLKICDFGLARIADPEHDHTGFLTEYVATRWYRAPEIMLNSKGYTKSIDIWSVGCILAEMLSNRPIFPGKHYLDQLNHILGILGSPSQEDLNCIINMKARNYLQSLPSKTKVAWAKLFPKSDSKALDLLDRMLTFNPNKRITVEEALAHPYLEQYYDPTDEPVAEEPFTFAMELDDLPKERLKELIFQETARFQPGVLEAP

Chain of Interleukin-1 receptor-associated kinase 1 (P51617 whole entry): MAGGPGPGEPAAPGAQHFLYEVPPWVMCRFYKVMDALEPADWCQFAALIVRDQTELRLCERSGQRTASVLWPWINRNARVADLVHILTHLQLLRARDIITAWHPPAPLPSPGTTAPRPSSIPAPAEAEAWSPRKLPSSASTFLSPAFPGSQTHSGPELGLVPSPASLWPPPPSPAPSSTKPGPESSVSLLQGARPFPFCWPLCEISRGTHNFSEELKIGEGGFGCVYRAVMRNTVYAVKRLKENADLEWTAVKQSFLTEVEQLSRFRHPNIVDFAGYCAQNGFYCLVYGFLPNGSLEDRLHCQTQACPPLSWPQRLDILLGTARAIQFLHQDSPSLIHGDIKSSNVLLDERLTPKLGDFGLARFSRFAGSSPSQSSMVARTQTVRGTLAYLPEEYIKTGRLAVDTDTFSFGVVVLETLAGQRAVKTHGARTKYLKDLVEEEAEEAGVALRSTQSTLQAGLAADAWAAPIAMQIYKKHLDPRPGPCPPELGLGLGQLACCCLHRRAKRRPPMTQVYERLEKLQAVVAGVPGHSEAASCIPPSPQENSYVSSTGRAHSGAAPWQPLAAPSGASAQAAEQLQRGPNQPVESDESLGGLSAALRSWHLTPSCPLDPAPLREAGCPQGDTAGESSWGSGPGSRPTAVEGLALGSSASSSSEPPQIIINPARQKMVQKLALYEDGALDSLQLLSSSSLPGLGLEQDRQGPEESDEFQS
Chain of Ribosomal protein S6 kinase alpha-1 (Q15418 whole entry): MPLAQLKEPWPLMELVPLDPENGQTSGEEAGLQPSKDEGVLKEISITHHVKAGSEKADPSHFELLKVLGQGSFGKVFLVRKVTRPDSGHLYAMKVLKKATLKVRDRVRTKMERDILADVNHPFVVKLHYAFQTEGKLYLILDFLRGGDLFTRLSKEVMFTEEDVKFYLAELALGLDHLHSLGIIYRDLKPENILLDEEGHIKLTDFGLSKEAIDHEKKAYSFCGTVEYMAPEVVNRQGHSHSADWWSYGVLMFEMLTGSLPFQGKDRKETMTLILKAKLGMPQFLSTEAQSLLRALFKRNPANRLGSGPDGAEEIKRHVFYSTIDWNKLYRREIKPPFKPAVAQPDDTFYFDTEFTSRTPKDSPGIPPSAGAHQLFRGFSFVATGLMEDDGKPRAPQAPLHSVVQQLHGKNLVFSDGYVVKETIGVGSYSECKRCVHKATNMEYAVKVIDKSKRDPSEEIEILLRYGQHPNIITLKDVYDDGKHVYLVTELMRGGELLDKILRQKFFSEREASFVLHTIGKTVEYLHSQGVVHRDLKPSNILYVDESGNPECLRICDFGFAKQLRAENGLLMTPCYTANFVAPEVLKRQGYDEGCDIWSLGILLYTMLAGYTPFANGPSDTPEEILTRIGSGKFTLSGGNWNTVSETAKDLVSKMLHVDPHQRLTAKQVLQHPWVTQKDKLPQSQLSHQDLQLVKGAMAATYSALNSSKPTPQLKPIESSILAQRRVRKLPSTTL

Turning to `C=CCN(/C=C1/C(=O)O[C@H](COC)[C@@]2(C)C1=C(O)C(=O)C1=C2[C@H](OC(C)=O)C[C@]2(C)C(=O)CC[C@@H]12)CC=C` [SONOLISIB], the Kd in [1], in [2], in [3], in test [4], in [5] and in test [6] was > 30 µM (inactive) each time. Moreover, the Kd in test [7], in test [8], in [9] and in test [10] was > 30 µM (inactive) each time.
As to `COc1cccc2cc(-c3nc([C@H]4CC[C@H](C(=O)O)CC4)n4ncnc(N)c34)[nH]c12` [OSI-027], the Kd in [1], in test [2], in test [3], in [4], in [5] and in test [6] was > 30 µM (inactive) each time. Besides, the Kd in test [7], in test [8], in test [9] and in [10] was > 30 µM (inactive) in each case.
For the molecule `O=c1[nH]c([C@@H]2CCCN2)nc2c1oc1ccc(Cl)cc12`, the Kd in test [1], in [2], in test [3], in test [4], in test [5] and in [6] was > 30 µM (inactive) in each case. Further, the Kd in [7], in [8], in [9] and in [10] was > 30 µM (inactive) each time.
Consider `CN1CCN(c2nc(C3=C(c4c[nH]c5ccccc45)C(=O)NC3=O)c3ccccc3n2)CC1` [SOTRASTAURIN], for which the Kd in [1], in test [2], in test [3], in [4], in [5] and in test [6] was > 30 µM (inactive) throughout. The Kd in test [7], in test [8], in [9] and in [10] was > 30 µM (inactive) in each case.
For the molecule `CCN1CCN(Cc2ccc(Nc3ncc(F)c(-c4cc(F)c5nc(C)n(C(C)C)c5c4)n3)nc2)CC1` [ABEMACICLIB], the Kd in test [1] was > 30 µM (inactive); in [2], > 30 µM (inactive); in test [3], 0.126 µM (active); in test [4], > 30 µM (inactive); in test [5], > 30 µM (inactive); in test [6], > 30 µM (inactive). Besides, the Kd in test [7], in [8], in test [9] and in test [10] was > 30 µM (inactive) each time.
In the case of `COc1ccc(-c2ccc3ncc4c(c3c2)n(-c2ccc(N3CCNCC3)c(C(F)(F)F)c2)c(=O)n4C)cn1` [BGT-226 FREE BASE], the Kd in test [1], in test [2], in test [3], in test [4], in test [5] and in test [6] was > 30 µM (inactive) each time. Further, the Kd in test [7], in test [8], in [9] and in [10] was > 30 µM (inactive) in each case.
Regarding `CNC(=O)c1ccc(Nc2ncc(C(F)(F)F)c(NCc3nccnc3N(C)S(C)(=O)=O)n2)cc1` [DEFACTINIB], the Kd in test [1], in test [2], in test [3], in test [4], in [5] and in [6] was > 30 µM (inactive) throughout. Also, the Kd in test [7], in test [8], in [9] and in test [10] was > 30 µM (inactive) in each case.
On to `Cc1c(Cn2c(C)nc3c(C(=O)O)cc(N4CCOCC4)cc32)cccc1C(F)(F)F` [GSK-2636771], for which the Kd in test [1], in [2], in test [3], in [4], in [5] and in test [6] was > 30 µM (inactive) each time. In addition, the Kd in [7], in test [8], in test [9] and in test [10] was > 30 µM (inactive) each time.
Take `Cc1cc(C(=O)Nc2cc(Oc3ccc4nc(NC(=O)C5CC5)cn4n3)ccc2C)n(C)n1` [TAK-593]: the Kd in test [1], in test [2], in test [3], in [4], in test [5] and in test [6] was > 30 µM (inactive) in each case. Further, the dissociation constant (Kd) in test [7] is 0.035 µM (active); in test [8], > 30 µM (inactive); in test [9], > 30 µM (inactive); in test [10], > 30 µM (inactive).
As for `C[C@@H]1COC(Nc2ccc3ncnc(Nc4ccc(OCc5nccs5)c(Cl)c4)c3c2)=N1` [VARLITINIB], the Kd in test [1], in test [2], in test [3], in test [4], in test [5] and in test [6] was > 30 µM (inactive) in each case. Moreover, the Kd in test [7], in [8], in [9] and in [10] was > 30 µM (inactive) each time.

Values taken from ChEMBL document CHEMBL3991601, “The target landscape of clinical kinase drugs” (Science, 2017).
